Series [1] concerns B16F10 cells. Nature of the series: Proliferation assay. Type of series: cell-based, mouse. The settings on record: E2 0.01-1 nM, 3 days. The method, then: (§1) ERα+ MCF7 cells served as a positive control. Cells were treated as either mock transfected or transfected with scrambled control or three different siRNA targeting Esr1. […] Esr1 was first normalized to Rplp0 and then Esr1 knockdown samples were normalized to a non-targeting control. RNA was collected from both cell lines after 48 hr of siRNA transfection. […] Mouse ovary served as a positive control. […] ERα+MCF7 cells served as a positive control (FIG. 5E, left). […] Data are expressed as individual data points and represented as mean±S.E.M. Significance was calculated by Student's t test or two-way ANOVA (FIGS. 5E-5F), followed by Bonferroni's multiple correction (**p<0.0001).
Proliferation assay. For proliferation assays, B16F10 cells were plated in DMEM media (without phenol red) supplemented with 10% charcoal-stripped FBS. Cells were plated at a concentration of 1000 cells/well of a 96-well plate for 2 days in 200 μL of media. […] Cells were collected every 24 hr by discarding the media from the plates. Plates were frozen at −80° C. […] Cell numbers were determined by the addition of 100 μL of (conc.) DNA dye […] dye (Sigma Cat #94403) in TNE buffer (10 mM Tris, 2M NaCl and 1 mM EDTA) and the fluorescence was read at an excitation of 360 nm and an emission at 465 nm using a microplate reader.

Series [2] in a line: Uterine wet weights in ovariectomized mice. The settings on record: E2 pellets 0.01 mg/60 days vs placebo. Type of series: in vivo, mouse. Here is the method: as §1
Ovarlectomy and subcutaneous pellet Insertion. Ovariectomy was performed as previously described (Nelson et al., Science 2013, 342, 1094-1098). Eight days prior to tumor inoculation, 7 weeks old C57BL/6J or 5 weeks old (iBP) female mice were subjected to ovariectomy or sham surgery. Mice were anesthetized in an inhalation chamber (2% Isoflurane) and maintained in half the dose of isoflurane (1%) via nose cone throughout the surgical process. Prior to surgery, mice were administered a 5 mg/kg dose of carprofen subcutaneously. […] The mouse was then removed from anesthesia and kept in a clean cage and monitored until conscious. The mice were monitored for recovery for 10 days.

Series [3] relates to CD4+ and CD8+ T cells. Nature of the series: T cell proliferation assay and staining, direct treatment of T cells in vitro. The class given is cell-based, mouse. The settings on record: E2 (1 nM)+fulvestrant (100 nM), 3 days. The source says: FIG. 17C and FIG. 17H show the percentage of CD44^+CD69^+ activated CD8^+ T cells (FIG. 17C) and CD4^+ T cells (FIG. 17H) from experiments described above. FIG. 17D and FIG. 17I show the percentage of GZMB^+ activated CD8^+ T cells (FIG. 17D) and CD4^+ T cells (FIG. 17I) from experiments described above. FIG. 17E and FIG. 17J show the percentage of IFNγ^+ activated CD8^+ T cells (FIG. 17E) and CD4^+ T cells (FIG. 17J) from experiments described above. Data are expressed as individual data points and represented as mean±S.E.M. Significance was calculated by one way ANOVA.
T cell proliferation assay and staining. CD3+ T cells were isolated from the spleens of C57BL/6J or P-mel mice with magnetic bead-based T cell isolation kit (Cat #19851, StemCell Technologies). T cells from naïve mice were stained with 5 μM CFSE (Cat #C34554, ThermoFisher Scientific) for 5 minutes in PBS+5% CFS with rapid vortexing following which the cells were washed twice with PBS. Stained T cells were then counted and plated in 96-well plates coated with anti-CD3 antibody (0.5 μg/mL, Cat #19851, ThermoFisher Scientific) anti-CD28 antibody (1 μg/mL, Cat #16-0281-86, Thermo Fisher Scientific) at desired density (250,000 T cells/50,000 CD11b or BMDM) in the presence of IL2 (50 ng/mL) (Cat #212-12, PeproTech). […]

For the compound 17β-estradiol [E2], in series [1], the proliferation result is recorded as “nor did it support proliferation”. Besides, the uterine wet weights result in series [2] is “increase”.
As to `C[C@]12CC[C@@H]3c4ccc(O)cc4C[C@@H](CCCCCCCCC[S+]([O-])CCCC(F)(F)C(F)(F)F)[C@H]3[C@@H]1CC[C@@H]2O` (stereo partly drawn) [fulvestrant], in series [3], the “proliferation or cytotoxic capabilities of CD4+ or CD8+ T cells” value is “did not affect”.

Values taken from US20240398831A1, “COMPOSITIONS COMPRISING SMALL MOLECULE REGULATORS OF TUMOR IMMUNITY AND METHODS OF USING SAME” (Duke University, priority 2021, published 2024).
